Results taken from patent publication US10226452B2, “Benzoxazolone derivatives as acid ceramidase inhibitors, and their use as medicaments” (FONDAZIONE ISTITUTO ITALIANO DI TECNOLOGIA, priority 2014, dated 2019).

Columns and labels:
[1] = target: AC (Homo sapiens (Human), UniProt Q13510); experiment: AC activity in SW403 human colon adenocarcinoma cells; type: cell-based
Method: (A) Intact cells were treated with compound of Example 25 (0.1-20 μM) or vehicle and AC activity was measured 3 hours later in cell lysates. (B-E) Intact cells were exposed to compound of Example 25 (0.1-20 μM) for 3 hours and sphingosine/sphinganine (B), dihydroceramides (C), medium chain ceramides (D), long chain ceramides (E) were quantified. Results are expressed as mean±s.e.m. (n=3). *p<0.05, **p<0.01, ***p<0.001 vs vehicle, two-way ANOVA followed by Dunnet.
(A) Intact cells were treated with compound of Example 25 (20 μM) or vehicle and AC activity was measured 1 to 48 hours later in cell lysates. (B-E) Intact cells were exposed to compound of Example 25 (20 μM) and sphingosine (B), C16:0 dihydroceramide (C), C16:0 ceramide (D) were quantified. Results are expressed as mean±s.e.m. (n=3). *p<0.05, **p<0.01, ***p<0.001 vs vehicle, two-way ANOVA followed by Dunnet.
hAC protein preparation (10 μg) was preincubated with inhibitors (final DMSO concentration 1%) in assay buffer (100 mM sodium phosphate, 0.1% Nonidet P-40, 150 mM NaCl, 3 mM DTT, 100 mM sodium citrate, pH 4.5) for 30 min at 37° C. Reactions were started by the addition of 50 μM N-lauroyl ceramide (Nu-Chek Prep, Elysian, Minn.) and carried on for 30 min at 37° C. Reactions were stopped by addition of a mixture of chloroform/methanol (2:1, vol/vol) containing 1 nmol 11-lauroleic acid (NuChek Prep). The organic phases were collected, dried under nitrogen and analyzed by UPLC/MS (Acquity, Waters). In the negative-ion mode monitoring the reaction product (lauric acid, m/z=199) using 11-lauroleic acid as internal standard. […]
The [M−H]^− ion was monitored in the selected-ion monitoring mode (m/z values: lauric acid 199, 11-lauroleic acid 197.35). […] Inhibition of AC activity was calculated as reduction of lauric acid in the samples compared to vehicle controls. IC50 values were calculated by non-linear regression analysis of log [concentration]/inhibition curves using GraphPad Prism 5 (GraphPad Software Inc., CA—USA) applying a standard slope curve fitting.

[2] = target: cathepsin B (h) (Homo sapiens (Human), UniProt P07858); experiment: Cerep enzyme inhibition screen: cathepsin B; type: biochemical; settings: mean of two determinations, read-out: Inhibitory activity (% Inh. at 10 μM), mean
From the text: (§1) Compound of Example 25 falling in both Formula (I) and (Ia) was selected to be tested for off-target effects on a set of enzymes that include proteases (aspartic, cysteine, and serine), cyclooxygenases as well as lipoxygenases and group IV phospholipase (sPLA2) (Table 3). [table]

[3] = system: proteases (aspartic, cysteine, and serine), cyclooxygenases, lipoxygenases and group IV phospholipase (sPLA2); experiment: off-target test on a set of enzymes (overall statement); type: biochemical; settings: 10 μM
From the text: as §1

[4] = target: cathepsin D (h) (Homo sapiens (Human), UniProt P07339); experiment: Cerep enzyme inhibition screen: cathepsin D; type: biochemical; settings: mean of two determinations, read-out: Inhibitory activity (% Inh. at 10 μM), mean
Chain of cathepsin D (h) (P07339 65-412): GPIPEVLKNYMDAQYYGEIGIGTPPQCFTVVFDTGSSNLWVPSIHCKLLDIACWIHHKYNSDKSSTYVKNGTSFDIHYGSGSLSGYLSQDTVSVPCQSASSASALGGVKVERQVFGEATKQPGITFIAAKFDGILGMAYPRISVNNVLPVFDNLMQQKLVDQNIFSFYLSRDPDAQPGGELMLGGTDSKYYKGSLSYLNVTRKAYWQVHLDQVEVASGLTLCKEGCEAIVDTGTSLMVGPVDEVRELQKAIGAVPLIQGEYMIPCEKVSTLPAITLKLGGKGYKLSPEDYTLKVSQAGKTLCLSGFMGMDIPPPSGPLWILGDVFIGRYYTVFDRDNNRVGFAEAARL
From the text: as §1

[5] = target: COX1 (h) (Homo sapiens (Human), UniProt P23219); experiment: Cerep enzyme inhibition screen: COX1; type: biochemical; settings: mean of two determinations, read-out: Inhibitory activity (% Inh. at 10 μM), mean
Chain of COX1 (h) (P23219 24-599): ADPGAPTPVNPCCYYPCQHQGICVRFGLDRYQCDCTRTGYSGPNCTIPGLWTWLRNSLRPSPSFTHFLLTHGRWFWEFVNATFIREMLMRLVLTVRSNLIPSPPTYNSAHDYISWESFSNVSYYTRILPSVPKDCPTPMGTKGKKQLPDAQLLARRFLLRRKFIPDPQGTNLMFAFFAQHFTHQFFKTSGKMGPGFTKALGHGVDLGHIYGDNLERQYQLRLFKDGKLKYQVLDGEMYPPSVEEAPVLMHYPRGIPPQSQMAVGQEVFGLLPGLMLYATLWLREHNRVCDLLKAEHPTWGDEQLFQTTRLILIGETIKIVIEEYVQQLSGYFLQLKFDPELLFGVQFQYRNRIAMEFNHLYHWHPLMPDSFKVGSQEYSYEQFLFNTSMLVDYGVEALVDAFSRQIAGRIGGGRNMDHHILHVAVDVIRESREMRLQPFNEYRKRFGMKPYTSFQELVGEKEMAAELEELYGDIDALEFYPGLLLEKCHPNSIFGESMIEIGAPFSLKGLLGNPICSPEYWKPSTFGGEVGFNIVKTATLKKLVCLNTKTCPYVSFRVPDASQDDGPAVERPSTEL
From the text: as §1

[6] = system: MAG levels; experiment: MAG levels in mouse tissues; type: in vivo; settings: mice; 10 mg-kg-1 intraperitoneal; after 3 hours
Method: Specifically, the levels of MAGs were quantified after 3 hours after intraperitoneal injection of compound of Example 25 (10 mg-kg-1). Specifically, levels of 16:0 MAG, 18:0 MAG, 18:1 MAG, 22:4 MAG, 22:6 MAG were measured in the brain (a); levels of 16:0 MAG, 18:0 MAG, 18:1 MAG, 22:4 MAG were measured in the liver (b), in fat (c) and in the heart (d). Results are expressed as mean±s.e.m. (n=5).
We homogenized tissue samples (20-30 mg) in methanol (1 mL) containing deuterium-labeled 2-AG (500 pmol) as internal standard (Cayman, Ann Arbor, Mich.). We extracted lipids with chloroform (2 mL) and water (1 mL). The organic phases were dried in a stream of N2, reconstituted in chloroform (2 mL) and fractionated by open-bed silica gel column chromatography as described. The eluded fraction containing 2-AG and anandamide were dried under N2, and residues were suspended in chloroform/methanol (1:3, vol:vol; 100 μL). Analyses were conducted using a liquid chromatography mass spectrometry (LC-MS) apparatus consisting of an Agilent 1100 system and 1946D mass spectrometer detector equipped with ESI interface (Agilent Technologies, Santa Clara, Calif., USA).

[7] = target: MMP-2 (h) (Homo sapiens (Human), UniProt P08253); experiment: Cerep enzyme inhibition screen: MMP-2; type: biochemical; settings: mean of two determinations, read-out: Inhibitory activity (% Inh. at 10 μM), mean
Chain of MMP-2 (h) (P08253 110-660): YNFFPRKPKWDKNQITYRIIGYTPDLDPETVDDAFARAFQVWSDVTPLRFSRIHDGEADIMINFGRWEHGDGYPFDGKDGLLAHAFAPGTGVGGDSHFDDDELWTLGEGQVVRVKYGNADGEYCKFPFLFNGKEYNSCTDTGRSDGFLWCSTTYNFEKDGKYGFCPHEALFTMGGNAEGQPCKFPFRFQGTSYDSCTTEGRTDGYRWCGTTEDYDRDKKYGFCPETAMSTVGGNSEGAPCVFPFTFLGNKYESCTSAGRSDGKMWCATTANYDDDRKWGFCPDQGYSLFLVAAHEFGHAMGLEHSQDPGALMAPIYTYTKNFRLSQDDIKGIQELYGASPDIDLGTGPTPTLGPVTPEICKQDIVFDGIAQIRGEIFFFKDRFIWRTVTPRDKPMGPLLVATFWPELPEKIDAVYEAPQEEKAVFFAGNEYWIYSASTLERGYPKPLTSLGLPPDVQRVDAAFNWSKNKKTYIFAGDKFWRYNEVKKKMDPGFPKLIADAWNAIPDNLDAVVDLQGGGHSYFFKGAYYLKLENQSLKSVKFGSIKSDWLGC
From the text: as §1

[8] = target: COX2 (h) (Homo sapiens (Human), UniProt P35354); experiment: Cerep enzyme inhibition screen: COX2; type: biochemical; settings: mean of two determinations, read-out: Inhibitory activity (% Inh. at 10 μM), mean
Chain of COX2 (h) (P35354 18-604): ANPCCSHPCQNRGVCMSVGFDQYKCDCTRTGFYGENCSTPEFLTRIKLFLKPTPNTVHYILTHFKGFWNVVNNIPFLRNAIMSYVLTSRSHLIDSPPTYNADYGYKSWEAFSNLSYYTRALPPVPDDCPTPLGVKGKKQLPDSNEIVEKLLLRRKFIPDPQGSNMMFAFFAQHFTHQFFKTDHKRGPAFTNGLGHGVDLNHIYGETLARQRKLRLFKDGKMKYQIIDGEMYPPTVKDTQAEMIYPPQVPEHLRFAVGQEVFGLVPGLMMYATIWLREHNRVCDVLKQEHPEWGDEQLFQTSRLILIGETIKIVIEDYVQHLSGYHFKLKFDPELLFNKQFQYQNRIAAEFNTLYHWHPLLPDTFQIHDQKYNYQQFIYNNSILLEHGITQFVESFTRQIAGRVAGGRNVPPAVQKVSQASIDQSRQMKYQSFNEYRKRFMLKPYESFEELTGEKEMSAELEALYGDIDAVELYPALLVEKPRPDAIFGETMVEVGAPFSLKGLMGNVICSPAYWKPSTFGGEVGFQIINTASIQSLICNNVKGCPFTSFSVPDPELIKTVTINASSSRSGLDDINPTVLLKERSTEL
From the text: as §1

[9] = 20 μM, AC activity and sphingolipid levels

Chain of AC (Q13510 22-142): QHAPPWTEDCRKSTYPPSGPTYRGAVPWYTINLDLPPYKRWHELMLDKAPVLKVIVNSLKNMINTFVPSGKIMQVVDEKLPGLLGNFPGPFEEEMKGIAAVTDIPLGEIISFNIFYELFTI
Chain of AC (Q13510 143-395): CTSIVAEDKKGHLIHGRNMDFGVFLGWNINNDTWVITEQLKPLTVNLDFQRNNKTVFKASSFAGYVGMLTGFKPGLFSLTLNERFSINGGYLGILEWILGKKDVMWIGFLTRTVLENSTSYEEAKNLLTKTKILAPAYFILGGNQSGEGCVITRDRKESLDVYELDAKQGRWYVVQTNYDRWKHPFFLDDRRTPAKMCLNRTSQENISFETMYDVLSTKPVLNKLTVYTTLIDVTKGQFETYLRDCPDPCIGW

O=C(NCCCCc1ccccc1)n1c(=O)oc2cc(-c3ccc(F)cc3)ccc21 [Example 25, 6-(4-Fluorophenyl)-2-oxo-N-(4-phenylbutyl)-1,3-benzoxazole-3-carboxamide]
duration of effects (timecourse) [1, 9]: ≥ 6 h
onset of significant effects (timecourse) [1, 9]: ≤ 1 h
AC activity ([1]; 0.1-20 μM, 3 hours): concentration dependent reduction in AC activity
inhibition at 10 µM [2]: 9.9%
activity towards the off-target enzyme set [3]: has not any significant activity
inhibition at 10 µM [4]: 67%
inhibition at 10 µM [5]: -6.1%
levels of the most representative MAGs in brain, liver, fat and heart [6]: remained unchanged
inhibition at 10 µM [7]: 7.2%
inhibition at 10 µM [8]: 6.7%
